ChEMBL document CHEMBL1122674, “Aporphines. 58. N-(2-chloroethyl) [8,9-2H]norapomorphine, an irreversible ligand for dopamine receptors: synthesis and application” (J Med Chem, 1984)

Tests used:
[1] = biological target: Dopamine receptor (Homo sapiens) (UniProt P14416+P35462+P21918+P21917+P21728); assay: Compound was evaluated at 100 uM concentration to displace [3H]spiperone and result indicates the percent displacement.; type: protein assay; settings: Canis lupus familiaris
Dopamine receptor = assay: Compound was evaluated for the competitive binding with [3H]spiperone binding to Canine striatal membranes.; parameters: species or system Canis lupus familiaris

Q: For `Oc1ccc2c(c1O)-c1cccc3c1[C@@H](C2)N(CCCl)CC3`, which Displacement [1] is on record?
A: 70%

Q: And the IC50 app (Dopamine receptor)?
A: 8 µM
